# Data as given in patent US20070128217A1 (priority 2003, published 2007).
# Assays:
# [1] = tested on: antibodies in sera from SARS patients (sera 1a, 1b, 2, 6, 37, 62, London, SARS-yellow, SARS-green); type: binding, human; design: Binding of serum 6 to linear peptides of protein X1 of SARS-CoV Urbani / Binding of serum 37 to linear peptides of protein X1 of SARS-CoV Urbani / Binding of serum 6 to looped/cyclic peptide (PEPSCAN-ELISA) / Binding of serum 37 to looped/cyclic peptide (PEPSCAN-ELISA) / Binding of serum 37 to looped/cyclic peptides of protein X1 of SARS-CoV Urbani / Binding of serum 6 to linear peptides of protein X2 / Binding of serum 37 to linear peptides of protein X2 / Binding of serum 37 to looped/cyclic peptides of protein X2 of SARS-CoV Urbani / Binding of serum 6 to linear peptides of protein M of SARS-CoV Urbani / Binding of serum 37 to linear peptides of protein M of SARS-CoV Urbani / Binding of serum 6 to looped/cyclic peptides of protein M of SARS-CoV Urbani / Binding of serum 37 to looped/cyclic peptides of protein M of SARS-CoV Urbani / Binding of serum 6 to linear peptides of protein X3 of SARS-CoV Urbani / Binding of serum 37 to linear peptides of protein X3 of SARS-CoV Urbani / Binding of serum 37 to looped/cyclic peptides of protein X3 of SARS-CoV Urbani / Binding of serum 6 to linear peptides of protein X4 of SARS-CoV Urbani / Binding of serum 37 to linear peptides of protein X4 of SARS-CoV Urbani / Binding of serum 37 to looped/cyclic peptides of protein X4 of SARS-CoV Urbani / Binding of serum 6 to linear peptides of protein X5 of SARS-CoV Urbani / Binding of serum 37 to linear peptides of protein X5 of SARS-CoV Urbani / Binding of serum 37 to looped/cyclic peptides of protein X5 of SARS-CoV Urbani / Binding of serum 6 to linear peptides of protein N of SARS-CoV Urbani / Binding of serum 37 to linear peptides of protein N of SARS-CoV Urbani / Binding of serum 6 to linear peptide (PEPSCAN-ELISA) / Binding of serum 1a to looped/cyclic peptides of protein N of SARS-CoV Urbani / Binding of serum 1b to looped/cyclic peptides of protein N of SARS-CoV Urbani / Binding of serum 2 to looped/cyclic peptides of protein N of SARS-CoV Urbani / Binding of serum 6 to looped/cyclic peptides of protein N of SARS-CoV Urbani / Binding of serum 37 to looped/cyclic peptides of protein N of SARS-CoV Urbani / Binding of serum 62 to looped/cyclic peptides of protein N of SARS-CoV Urbani / Binding of serum London to looped/cyclic peptides of protein N of SARS-CoV Urbani / Binding of serum SARS-green to looped/cyclic peptides of protein N of SARS-CoV Urbani: unit not given here
# [2] = tested on: control sera (pooled serum of ten healthy LUMC hospital workers; commercial negative donor pooled serum from the Dutch bloodbank); type: binding, human; design: Binding of Control serum LUMC to linear peptides / Binding of Control serum Blood-bank to linear peptides / Binding of Control serum LUMC to looped peptides / Binding of Control Serum Blood-Bank to Looped peptides / Binding of Control serum LUMC to linear peptides of the protein M of SARS-CoV Urbani / Binding of Control serum Blood-bank to linear peptides of the protein M of SARS-CoV Urbani / Binding of Control serum LUMC to looped peptides of the protein M of SARS-CoV Urbani / Binding of Control Serum Blood-Bank to Looped peptides of the protein M of SARS-CoV Urbani: unit not given here
# [3] = tested on: rabbit serum obtained by immunizing a rabbit with the SARS-CoV strain Frankfurt 1; type: binding; design: Binding of a rabbit serum to linear peptides / Binding of a rabbit serum to looped peptides / Rabbit serum linear peptides / Rabbit serum looped peptides / Binding of a rabbit serum to linear peptides of protein N of SARS-CoV Urbani (Rabbit serum linear peptides) / Binding of a rabbit serum to looped/cyclic peptides of protein N of SARS-CoV Urbani (Rabbit serum looped peptides): unit not given here
sequence,measurement,setting,value
LWLLWPVTLACFVLA,Binding of serum 1a to linear peptides of protein M of SARS-CoV Urbani,[1],0.7
same,Binding of serum 1a to looped/cyclic peptides of protein M of SARS-CoV Urbani,[1],0.7
same,Binding of serum 1b to linear peptides of protein M of SARS-CoV Urbani,[1],0.6
same,Binding of serum 1b to looped/cyclic peptides of protein M of SARS-CoV Urbani,[1],0.4
same,Binding of serum 2 to linear peptides of protein M of SARS-CoV Urbani,[1],0.4
same,Binding of serum 2 to looped/cyclic peptides of protein M of SARS-CoV Urbani,[1],0.6
same,Binding of serum 6 to linear peptides of protein M of SARS-CoV Urbani,[1],0.5
same,Binding of serum 6 to looped/cyclic peptides of protein M of SARS-CoV Urbani,[1],0.5
same,Binding of serum 37 to linear peptides of protein M of SARS-CoV Urbani,[1],0.4
same,Binding of serum 37 to looped/cyclic peptides of protein M of SARS-CoV Urbani,[1],0.7
same,Binding of serum 62 to linear peptides of protein M of SARS-CoV Urbani,[1],0.4
same,Binding of serum 62 to looped/cyclic peptides of protein M of SARS-CoV Urbani,[1],0.6
same,Binding of serum London to linear peptides of protein M of SARS-CoV Urbani,[1],0.4
same,Binding of serum London to looped/cyclic peptides of protein M of SARS-CoV Urbani,[1],0.2
same,Binding of serum SARS-green to linear peptides of protein M of SARS-CoV Urbani,[1],0.4
same,Binding of serum SARS-green to looped/cyclic peptides of protein M of SARS-CoV Urbani,[1],0.2
same,Binding of serum SARS-yellow to linear peptides of protein M of SARS-CoV Urbani,[1],0.2
same,Binding of serum SARS-yellow to looped/cyclic peptides of protein M of SARS-CoV Urbani,[1],0.6
same,Binding of Control Serum Blood-Bank to Looped peptides of the protein M of SARS-CoV Urbani,[2],0.5
same,Binding of Control serum Blood-bank to linear peptides of the protein M of SARS-CoV Urbani,[2],0.5
same,Binding of Control serum LUMC to linear peptides of the protein M of SARS-CoV Urbani,[2],0.5
same,Binding of Control serum LUMC to looped peptides of the protein M of SARS-CoV Urbani,[2],0.6
same,Rabbit serum linear peptides,[3],0.1
same,Rabbit serum looped peptides,[3],0.4
LWPVTLACFVLAAVY,Binding of serum 1a to linear peptides of protein M of SARS-CoV Urbani,[1],0.7
same,Binding of serum 1a to looped/cyclic peptides of protein M of SARS-CoV Urbani,[1],0.7
same,Binding of serum 1b to linear peptides of protein M of SARS-CoV Urbani,[1],0.6
same,Binding of serum 1b to looped/cyclic peptides of protein M of SARS-CoV Urbani,[1],0.5
same,Binding of serum 2 to linear peptides of protein M of SARS-CoV Urbani,[1],0.6
same,Binding of serum 2 to looped/cyclic peptides of protein M of SARS-CoV Urbani,[1],0.7
same,Binding of serum 6 to linear peptides of protein M of SARS-CoV Urbani,[1],0.3
same,Binding of serum 6 to looped/cyclic peptides of protein M of SARS-CoV Urbani,[1],0.6
same,Binding of serum 37 to linear peptides of protein M of SARS-CoV Urbani,[1],0.7
same,Binding of serum 37 to looped/cyclic peptides of protein M of SARS-CoV Urbani,[1],0.7
same,Binding of serum 62 to linear peptides of protein M of SARS-CoV Urbani,[1],0.8
same,Binding of serum 62 to looped/cyclic peptides of protein M of SARS-CoV Urbani,[1],0.6
same,Binding of serum London to linear peptides of protein M of SARS-CoV Urbani,[1],0.3
same,Binding of serum London to looped/cyclic peptides of protein M of SARS-CoV Urbani,[1],0.2
same,Binding of serum SARS-green to linear peptides of protein M of SARS-CoV Urbani,[1],0.2
same,Binding of serum SARS-green to looped/cyclic peptides of protein M of SARS-CoV Urbani,[1],0.2
same,Binding of serum SARS-yellow to linear peptides of protein M of SARS-CoV Urbani,[1],0.0
same,Binding of serum SARS-yellow to looped/cyclic peptides of protein M of SARS-CoV Urbani,[1],0.5
same,Binding of Control Serum Blood-Bank to Looped peptides of the protein M of SARS-CoV Urbani,[2],0.6
same,Binding of Control serum Blood-bank to linear peptides of the protein M of SARS-CoV Urbani,[2],0.6
same,Binding of Control serum LUMC to linear peptides of the protein M of SARS-CoV Urbani,[2],0.4
same,Binding of Control serum LUMC to looped peptides of the protein M of SARS-CoV Urbani,[2],0.7
same,Rabbit serum linear peptides,[3],0.4
same,Rabbit serum looped peptides,[3],0.4
LYSPLFLIVAALVFL,Binding of serum 1a to linear peptides of protein X4 of SARS-CoV Urbani,[1],0.6
same,Binding of serum 1a to looped/cyclic peptides of protein X4 of SARS-CoV Urbani,[1],0.5
same,Binding of serum 1b to linear peptides of protein X4 of SARS-CoV Urbani,[1],0.4
same,Binding of serum 1b to looped/cyclic peptides of protein X4 of SARS-CoV Urbani,[1],0.3
same,Binding of serum 2 to linear peptides of protein X4 of SARS-CoV Urbani,[1],0.4
same,Binding of serum 2 to looped/cyclic peptides of protein X4 of SARS-CoV Urbani,[1],0.4
same,Binding of serum 6 to linear peptides of protein X4 of SARS-CoV Urbani,[1],0.5
same,Binding of serum 6 to looped/cyclic peptides of protein X4 of SARS-CoV Urbani,[1],0.4
same,Binding of serum 37 to linear peptides of protein X4 of SARS-CoV Urbani,[1],0.6
same,Binding of serum 37 to looped/cyclic peptides of protein X4 of SARS-CoV Urbani,[1],0.5
same,Binding of serum 62 to linear peptides of protein X4 of SARS-CoV Urbani,[1],0.6
same,Binding of serum 62 to looped/cyclic peptides of protein X4 of SARS-CoV Urbani,[1],0.5
same,Binding of serum London to linear peptides of protein X4 of SARS-CoV Urbani,[1],0.6
same,Binding of serum London to looped/cyclic peptides of protein X4 of SARS-CoV Urbani,[1],0.2
same,Binding of serum SARS-green to linear peptides of protein X4 of SARS-CoV Urbani,[1],0.5
same,Binding of serum SARS-green to looped/cyclic peptides of protein X4 of SARS-CoV Urbani,[1],0.4
same,Binding of serum SARS-yellow to linear peptides of protein X4 of SARS-CoV Urbani,[1],0.2
same,Binding of serum SARS-yellow to looped/cyclic peptides of protein X4 of SARS-CoV Urbani,[1],0.4
same,Binding of Control Serum Blood-Bank to Looped peptides,[2],0.6
same,Binding of Control serum Blood-bank to linear peptides,[2],0.5
same,Binding of Control serum LUMC to linear peptides,[2],0.4
same,Binding of Control serum LUMC to looped peptides,[2],0.6
same,Rabbit serum linear peptides,[3],0.4
same,Rabbit serum looped peptides,[3],0.3
MACIVGLMWLSYFVA,Binding of serum 1a to linear peptides of protein M of SARS-CoV Urbani,[1],0.7
same,Binding of serum 1a to looped/cyclic peptides of protein M of SARS-CoV Urbani,[1],0.7
same,Binding of serum 1b to linear peptides of protein M of SARS-CoV Urbani,[1],0.5
same,Binding of serum 1b to looped/cyclic peptides of protein M of SARS-CoV Urbani,[1],0.4
same,Binding of serum 2 to linear peptides of protein M of SARS-CoV Urbani,[1],0.4
same,Binding of serum 2 to looped/cyclic peptides of protein M of SARS-CoV Urbani,[1],0.4
same,Binding of serum 6 to linear peptides of protein M of SARS-CoV Urbani,[1],0.3
same,Binding of serum 6 to looped/cyclic peptides of protein M of SARS-CoV Urbani,[1],0.5
same,Binding of serum 37 to linear peptides of protein M of SARS-CoV Urbani,[1],0.4
same,Binding of serum 37 to looped/cyclic peptides of protein M of SARS-CoV Urbani,[1],0.4
same,Binding of serum 62 to linear peptides of protein M of SARS-CoV Urbani,[1],0.4
same,Binding of serum 62 to looped/cyclic peptides of protein M of SARS-CoV Urbani,[1],0.5
same,Binding of serum London to linear peptides of protein M of SARS-CoV Urbani,[1],0.3
same,Binding of serum London to looped/cyclic peptides of protein M of SARS-CoV Urbani,[1],0.2
same,Binding of serum SARS-green to linear peptides of protein M of SARS-CoV Urbani,[1],0.3
same,Binding of serum SARS-green to looped/cyclic peptides of protein M of SARS-CoV Urbani,[1],0.2
same,Binding of serum SARS-yellow to linear peptides of protein M of SARS-CoV Urbani,[1],0.2
same,Binding of serum SARS-yellow to looped/cyclic peptides of protein M of SARS-CoV Urbani,[1],0.4
same,Binding of Control Serum Blood-Bank to Looped peptides of the protein M of SARS-CoV Urbani,[2],0.4
same,Binding of Control serum Blood-bank to linear peptides of the protein M of SARS-CoV Urbani,[2],0.5
same,Binding of Control serum LUMC to linear peptides of the protein M of SARS-CoV Urbani,[2],0.5
same,Binding of Control serum LUMC to looped peptides of the protein M of SARS-CoV Urbani,[2],0.6
same,Rabbit serum linear peptides,[3],0.2
same,Rabbit serum looped peptides,[3],0.0
